Results on 3 compounds are retold here after patent US20160030530A1, “SULFORAPHANE/SULFORAPHANE PRECURSOR AND PHYTOSTEROL/PHYTOSTANOL COMPOSITIONS” (NUTRAMAX LABORATORIES, INC., priority 2013, published 2016).

SMILES strings stand for the structures.

Experiment [1] deals with broccoli sprout-derived myrosinase. Put plainly: Consumption of glucoraphanin as a function of the ascorbic acid concentration (hydrolysis by myrosinase). It counts as biochemical. As for the experimental part:
About 250 mg of broccoli seed extract containing about 12% (w/w) glucoraphanin were subjected to hydrolysis by a fixed concentration of broccoli sprout-derived myrosinase in the presence of variable concentration of ascorbic acid, ranging from 0 to 600 μmoles/Liter. The reaction mixtures were thermostated at 38° C.; aliquots were withdrawn every 15 minutes for 60 minutes, and concentration of glucoraphanin determined chromatographically. The rate of glucoraphanin consumption was interpreted as the rate its conversion to sulforaphane. Graphical representation of glucoraphanin content reduction as a function of increasing ascorbic acid concentration results in a series of linear plots; the slopes of the linear regression lines reflect the rate of glucoraphanin consumption, in μmoles/minute. It is apparent that in the presence of 600 μmoles/Liter concentration of ascorbic acid, the reaction rate increased 13-fold relative to that which proceeded in the absence of modulatory effects of ascorbic acid.

For experiment [2], the system named is myrosinase. Put plainly: Conversion of glucoraphanin to sulforaphane in the presence of Simulated Intestinal Fluid. Format: biochemical, broccoli. The conditions noted are these: 0.25 to 1.00 mmol/Liter ascorbic acid, 38° C., 2 hours. As for the experimental part: Simulated Intestinal Fluid (SIF) powder, a commercially supplied concentrate closely approximating the human intestinal content in terms of composition, pH and ionic strength, was used. The experiment utilized a USP Dissolution Apparatus 2 (paddles), where into six dissolution vessels 500 mL of Simulated Intestinal Fluid was dispensed, along with 150 mg of freeze-dried broccoli sprout powder as a source of myrosinase. In vessels 1-4, the concentration of ascorbic acid was varied from 0.25 to 1.00 mmol/Liter; in vessel 5, in addition to 1 mmol/Liter ascorbic acid, 3.125 g of pancreatin (8×USP) was suspended; in vessel 6, in addition to 1 mmol/Liter ascorbic acid, and 3.125 g of pancreatin (8×USP), a doubled amount of freeze-dried broccoli sprout powder (300 mg) was added. After vessels were brought to 38° C., 250 mg of glucoraphanin-rich (12%, w/w) broccoli seed extract was added to each, and the resulting suspensions were stirred at 75 RPM for 2 hours. Aliquots were withdrawn every 15 minutes, and assayed for sulforaphane.

Experiment [3] deals with myrosinase. The experiment in a line: Equimolar conversion of glucoraphanin to sulforaphane, role of ascorbic acid in modulating myrosinase activity. It counts as biochemical, broccoli. To be noted: control sample, without ascorbic acid. The method, then: A two-part experiment was conducted to further elucidate the role of ascorbic acid in modulating myrosinase activity. […] A control sample contained no ascorbic acid, and the enzymatic conversion proceeded unassisted by a co-factor. PART 1. […] PART 2. While keeping the amount of broccoli seed extract fixed at 250 mg, the concentration of ascorbic acid was varied from 0.4 mmol/Liter to 3.8 mmol/Liter. The table below presents glucoraphanin and sulforaphane expressed in μmoles.

The next experiment has as its system chondrocytes. The conditions noted are these: IL-1β-induced NF-κB pathway; cited from earlier work.

With `O=C1O[C@H]([C@@H](O)CO)C(O)=C1O` [Ascorbic Acid, ascorbic acid], the “Slope (rate of glucoraphanin consumption)” value in experiment [1] (0 μM ascorbic acid, linear regression 0-60 min) is -0.09293 µmol/min. For the same compound, the “Glucoraphanin (GR) content” value in experiment [1] (0 μM ascorbic acid, time 15 min, 38° C.) came out at 92.24 µmol; in experiment [1] (0 μM ascorbic acid, time 30 min, 38° C.), 90.71 µmol; in experiment [1] (0 μM ascorbic acid, time 45 min, 38° C.) it was 89.44 µmol; in experiment [1] (0 μM ascorbic acid, time 60 min, 38° C.), 87.79 µmol. Further, the “Increase of reaction rate relative to absence of ascorbic acid” value in experiment [1] (600 μmoles/Liter ascorbic acid, 38° C.) is on record as 13 fold. Also, the “Yield of sulforaphane versus ascorbic acid concentration” value with myrosinase [2] is “direct correlation between larger yield of sulforaphane and higher concentrations of ascorbic acid”.
Turning to `C[S+]([O-])CCCC/C(=N\OS(=O)(=O)O)S[C@@H]1O[C@H](CO)[C@@H](O)[C@H](O)[C@H]1O` (stereo partly drawn) [glucoraphanin, 4-methylsulfinylbutyl glucosinolate], in the experiment on myrosinase [3], the “Conversion of glucoraphanin to sulforaphane (amount consumed versus amount produced)” value is given as “equimolar conversion of glucoraphanin to sulforaphane”.
Turning to `CC[C@H](/C=C/[C@@H](C)[C@H]1CC[C@H]2[C@@H]3CC=C4C[C@@H](O)CC[C@]4(C)[C@H]3CC[C@]12C)C(C)C` [stigmasterol, 3β-stigmasta-5,22,-dien-3-ol], in the experiment with chondrocytes, the “Pro-inflammatory and matrix degradation mediators (MMP-3, MMP-13, ADAMTS-4, PGE2)” value was “inhibits several pro-inflammatory and matrix degradation mediators”.
